Source: patent US11166460B2, “α-amino acrylate microbicide, and preparation method therefor and uses thereof” (priority 2017, dated 2021)
≈ marks a conversion by molar mass, not a printed value. Like-named read-outs stand apart in the source and are kept apart here.

Experiments:
[1] = system: Botrytis cinerea; test: Fungicidal activity, fungi growth rate method, BC; format: cell-based; details: Botrytis cinerea, 50 μg/mL
[2] = system: tobacco mosaic virus (TMV); test: Anti-TMV curative activity (treatment mode), live friction inoculation on tobacco seedlings; format: in vivo; details: Tobacco mosaic virus, read-out: Anti-TMV activity, Curative effect (inhibition), 100 μg/mL, tobacco seedlings, checked on seventh day
[3] = system: Alternaria solani; test: Fungicidal activity, fungi growth rate method, AS; format: cell-based; details: Alternaria solani, 50 μg/mL
[4] = system: tobacco mosaic virus (TMV); test: Anti-TMV protective activity (protection mode), live friction inoculation on tobacco seedlings; format: in vivo; details: Tobacco mosaic virus, read-out: Anti-TMV activity, Protection effect (inhibition)
[5] = system: Physalospora piricola; test: Fungicidal activity, fungi growth rate method, PP; format: cell-based; details: 50 μg/mL
[6] = system: tobacco mosaic virus (TMV); test: Anti-TMV inducing activity (induction mode), tobacco seedlings; format: in vivo; details: Tobacco mosaic virus, read-out: Anti-TMV activity, Induction effect (inhibition), 100 μg/mL, tobacco seedlings
[7] = system: Rhizoctonia cerealis; test: Fungicidal activity, fungi growth rate method, RC; format: cell-based; details: Ceratobasidium cereale, 50 μg/mL
[8] = system: Cercospora arachidicola; test: Fungicidal activity, fungi growth rate method, CA; format: cell-based; details: Mycosphaerella arachidis, 50 μg/mL
[9] = system: Sclerotinia sclerotiorum; test: microbe, parasite or virus in culture; format: cell-based; details: Sclerotinia sclerotiorum; for inhibition at 50 µg/mL: 50 μg/mL
[10] = system: wheat Gibberella zeae; test: microbe, parasite or virus in culture; format: cell-based; details: Fusarium graminearum
[11] = system: Pellicularia sasakii; test: Fungicidal activity, fungi growth rate method, PS; format: cell-based; details: 50 μg/mL
[12] = system: tobacco mosaic virus (TMV); test: Anti-TMV inactivation activity (inactivation mode), compound mixed with TMV before inoculation of tobacco leaves; format: in vivo; details: Tobacco mosaic virus, read-out: Anti-TMV activity, Inactivation effect (inhibition)
[13] = system: Phytophthora infestans (Mont) de Bary; test: microbe, parasite or virus in culture; format: cell-based; details: Phytophthora infestans
[14] = read-out: Fungicidal activity, inhibition, BC
[15] = read-out: Fungicidal activity, inhibition, AS
[16] = read-out: Fungicidal activity, inhibition, PP
[17] = read-out: Fungicidal activity, inhibition, RC
[18] = read-out: Fungicidal activity, inhibition, CA
[19] = read-out: Fungicidal activity (inhibition) against SS: Sclerotinia sclerotiorum
[20] = read-out: Fungicidal activity, inhibition, SS
[21] = read-out: Fungicidal activity, inhibition, GZ
[22] = read-out: Fungicidal activity, inhibition, PS
[23] = read-out: Fungicidal activity, inhibition, PI
[24] = read-out: Fungicidal activity (inhibition) against BC: Botrytis cinerea
[25] = read-out: Fungicidal activity (inhibition) against RC: Rhizoctonia cerealis
[26] = read-out: Fungicidal activity (inhibition) against PI: Phytophthora infestans (Mont) de Bary

SMILES	inhibition at 50 µg/mL [1, 14]	melting point	inhibition at 100 µg/mL [2]	inhibition at 50 µg/mL [3, 15]	inhibition at 100 µg/mL [4]	inhibition at 50 µg/mL [5, 16]	inhibition at 100 µg/mL [6]	inhibition at 50 µg/mL [7, 17]	inhibition at 50 µg/mL [8, 18]	inhibition at 50 µg/mL [9, 19]	inhibition at 50 µg/mL [9, 20]	inhibition at 50 µg/mL [10, 21]	inhibition at 50 µg/mL [11, 22]	inhibition at 100 µg/mL [12]	inhibition at 50 µg/mL [13, 23]	other results
O=C(N/C(=C\c1ccccc1)C(=O)N1CCC(O)(c2ccc(Br)cc2)CC1)c1cccs1 [Compound 14, (Z)-N-[1-[[4-(4-bromophenyl)-4-hydroxy-1-piperidinyl]carbonyl]-2-phenylethenyl]-2-thiophenecarboxamide]	24%	134 to 136 °C	39%	17%	34%	0%	52%	8%	7%	80 to 95%	83%	7%	3%	30%	5%	–
Cc1ccc(/C=C(\NC(=O)c2ccccc2)C(=O)N2CCC(O)(c3ccc(Br)cc3)CC2)cc1 [Compound 15, (Z)-N-[1-[[4-(4-bromophenyl)-4-hydroxy-1-piperidinyl]carbonyl]-2-(4-metylphenyl)ethenyl]benzamide]	10%	234 to 236 °C	20%	17%	0%	7%	41%	16%	13%	–	56%	10%	12%	0%	21%	–
Cc1snnc1/C=C(\NC(=O)c1ccccc1)C(=O)O [Compound 70, (Z)-2-benzoylamino-3-[4-(5-methyl-1,2,3-thiadiazol)]propenoic acid]	12%	190 to 192 °C	37%	14%	17%	0%	37%	18%	24%	–	44%	21%	14%	3%	13%	–
O=C(N/C(=C\c1cccc(C(F)(F)F)c1)C(=O)N1CCC(O)(c2ccc(Br)cc2)CC1)c1ccccc1 [Compound 21, (Z)-N-[1-[[4-(4-bromophenyl)-4-hydroxy-1-piperidinyl]carbonyl]-2-(3-trifluoromethylphenyl)ethenyl]benzamide]	8%	118 to 120 °C	35%	12%	46%	8%	9%	24%	25%	60 to 80%	75%	19%	17%	58%	2%	–
O=C(N/C(=C\c1ccccc1)C(=O)N1CCOCC1)c1ccccc1 [Compound 38, (Z)-N-[1-(4-morpholinylcarbonyl)-2-phenylethenyl]benzamide]	4%	147 to 149 °C	0%	8%	38%	0%	46%	9%	7%	77%	77%	6%	13%	0%	11%	inhibition at 50 µg/mL [1, 24]: ≤ 20%; inhibition at 50 µg/mL ([3]; read-out: Fungicidal activity (inhibition) against AS: Alternaria solani): < 30%; inhibition at 50 µg/mL ([5]; read-out: Fungicidal activity (inhibition) against PP: Physalospora piricola): < 20%; inhibition at 50 µg/mL [7, 25]: < 20%; inhibition at 50 µg/mL ([8]; read-out: Fungicidal activity (inhibition) against CA: Cercospora arachidicola): < 25%; inhibition at 50 µg/mL ([10]; read-out: Fungicidal activity (inhibition) against GZ: wheat Gibberella zeae): < 45%; inhibition at 50 µg/mL ([11]; read-out: Fungicidal activity (inhibition) against PS: Pellicularia sasakii): < 30%; inhibition at 50 µg/mL [13, 26]: < 25%
O=C(NCc1ccc(Br)cc1)/C(=C/c1ccccc1)NC(=O)c1ccccc1 [Compound 46, N-[(1Z)-2-phenyl-1-[[(4-bromophenylmethyl)amino]carbonyl]ethenyl]benzamide]	9%	192 to 194 °C	33%	7%	41%	12%	44%	13%	18%	–	34%	43%	2%	64%	11%	–
CNC(=O)/C(=C/c1csc(C2CCN(C(=O)OC(C)(C)C)CC2)n1)NC(=O)c1ccccc1 [Compound 41, (Z)-N-[1-[(methylamino)carbonyl]-2-[4-[2-[4-(1-Boc-piperidine)]thiazol]]ethenyl]benzamide]	52%	107 to 109 °C	0%	54%	30%	37%	2%	33%	35%	–	96%	34%	33%	0%	39%	inhibition at 50 µg/mL [1, 24]: 52%; EC90 ([9]; read-out: EC90 against S. sclerotiorum in vitro): 375 µg/mL (≈ 796 µM)
CC(C)(C)OC(=O)N1CCC(c2nc(/C=C(\NC(=O)c3ccccc3)C(=O)O)cs2)CC1 [Compound 74, (Z)-2-benzoylamino-3-[4-[2-[4-(1-Boc-piperidine)]thiazol]]propenoic acid]	41%	125 to 127 °C	3%	36%	48%	32%	63%	44%	39%	80 to 95%	89%	42%	38%	0%	40%	inhibition at 50 µg/mL [1, 24]: 41%; inhibition at 50 µg/mL [7, 25]: 44%; inhibition at 50 µg/mL [13, 26]: 40%
O=C(NCc1cccs1)/C(=C/c1ccccc1)NC(=O)c1ccccc1 [Compound 58, N-[(1Z)-2-phenyl-1-[[(2-thienylmethyl)amino]carbonyl]ethenyl]benzamide]	18%	210 to 212 °C	17%	21%	0%	9%	2%	18%	6%	–	47%	29%	14%	0%	21%	–
CONC(=O)/C(=C/c1ccccc1)NC(=O)c1ccccc1 [Compound 33, (Z)-N-[1-[(methoxylamino)carbonyl]-2-phenylethenyl]benzamide]	22%	166 to 168 °C	3%	21%	1%	3%	45%	10%	13%	–	17%	0%	5%	0%	8%	–
O=C(N/C(=C\c1ccc(F)cc1)C(=O)N1CCC(O)(c2ccc(Br)cc2)CC1)c1ccccc1 [Compound 17, (Z)-N-[1-[[4-(4-bromophenyl)-4-hydroxy-1-piperidinyl]carbonyl]-2-(4-fluorophenyl)ethenyl]-benzamide]	10%	266 to 268 °C	0%	28%	33%	3%	3%	10%	23%	–	67%	16%	15%	1%	27%	–
